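Each compound was tested at five concentrations against cells in 96-well plates for 48 hours. The concentration for 50% growth inhibition is given as GI50. At the TGI there is no net growth.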
How the values were obtained:
Assay in all cases: NCI tumour cell line growth inhibition, 48 h
MDA-MB-468 breast = tested on: MDA-MB-468 breast
HCC-2998 colon = tested on: HCC-2998 colon
HCT-15 colon = tested on: HCT-15 colon
UO-31 renal = tested on: UO-31 renal
MDA-MB-435 = tested on: MDA-MB-435
EKVX NSCLC = tested on: EKVX NSCLC
MALME-3M melanoma = tested on: MALME-3M melanoma
OVCAR-5 ovarian = tested on: OVCAR-5 ovarian
SNB-75 CNS = tested on: SNB-75 CNS
HT29 colon = tested on: HT29 colon
CAKI-1 renal = tested on: CAKI-1 renal
T-47D breast = tested on: T-47D breast
TK-10 renal = tested on: TK-10 renal
IGROV1 ovarian = tested on: IGROV1 ovarian
NCI-H226 lung = tested on: NCI-H226 lung
KM12 colon = tested on: KM12 colon
PC-3 prostate = tested on: PC-3 prostate
MOLT-4 leukemia = tested on: MOLT-4 leukemia
OVCAR-4 ovarian = tested on: OVCAR-4 ovarian
HOP-92 NSCLC = tested on: HOP-92 NSCLC
NCI-H23 lung = tested on: NCI-H23 lung
HS 578T breast = tested on: HS 578T breast
K-562 leukemia = tested on: K-562 leukemia
HL-60(TB) leukemia = tested on: HL-60(TB) leukemia
LOX IMVI melanoma = tested on: LOX IMVI melanoma
NCI-H522 lung = tested on: NCI-H522 lung
SK-OV-3 ovarian = tested on: SK-OV-3 ovarian
SK-MEL-2 melanoma = tested on: SK-MEL-2 melanoma
OVCAR-3 ovarian = tested on: OVCAR-3 ovarian
RXF 393 renal = tested on: RXF 393 renal
NCI/ADR-RES ovarian = tested on: NCI/ADR-RES ovarian
A498 renal = tested on: A498 renal
BT-549 breast = tested on: BT-549 breast
SW-620 colon = tested on: SW-620 colon
MCF7 breast = tested on: MCF7 breast
OVCAR-8 ovarian = tested on: OVCAR-8 ovarian
SNB-19 CNS = tested on: SNB-19 CNS
SK-MEL-28 melanoma = tested on: SK-MEL-28 melanoma
SN12C renal = tested on: SN12C renal
ACHN renal = tested on: ACHN renal
SF-268 CNS = tested on: SF-268 CNS
UACC-62 melanoma = tested on: UACC-62 melanoma
SK-MEL-5 melanoma = tested on: SK-MEL-5 melanoma
HCT-116 colon = tested on: HCT-116 colon
SF-295 CNS = tested on: SF-295 CNS
SR leukemia = tested on: SR leukemia
U251 CNS = tested on: U251 CNS
786-0 renal = tested on: 786-0 renal
HOP-62 NSCLC = tested on: HOP-62 NSCLC
NCI-H460 lung = tested on: NCI-H460 lung
SF-539 CNS = tested on: SF-539 CNS
MDA-MB-231 breast = tested on: MDA-MB-231 breast
M14 melanoma = tested on: M14 melanoma
UACC-257 melanoma = tested on: UACC-257 melanoma
DU-145 prostate = tested on: DU-145 prostate
A549 NSCLC = tested on: A549 NSCLC
CCRF-CEM leukemia = tested on: CCRF-CEM leukemia
RPMI-8226 leukemia = tested on: RPMI-8226 leukemia
COLO 205 colon = tested on: COLO 205 colon

Work on O=C(COc1ccc(/C=C2/C(=O)Nc3ccc(Cl)cc32)cc1)Nc1ccc(Br)cc1 yielded a GI50 (MDA-MB-468 breast) of 10.3 µM, a TGI (MDA-MB-468 breast) of 22 µM and a GI50 (HCC-2998 colon) of 4.46 µM. For the same compound, the TGI (HCC-2998 colon) was 17.6 µM, the GI50 (HCT-15 colon) was 1.4 µM and the TGI (HCT-15 colon) was 10.1 µM. For the same compound, the GI50 (UO-31 renal) was 0.221 µM, the TGI (UO-31 renal) was 2.27 µM and the GI50 (MDA-MB-435) was 3.45 µM. The TGI (MDA-MB-435) was 13.5 µM, the GI50 (EKVX NSCLC) was 1.92 µM and the TGI (EKVX NSCLC) was 5.99 µM. For the same compound, the GI50 (MALME-3M melanoma) was 1.5 µM, the TGI (MALME-3M melanoma) was 3.68 µM and the GI50 (OVCAR-5 ovarian) was 2.29 µM. It also gave a TGI (OVCAR-5 ovarian) of 7.61 µM, a GI50 (SNB-75 CNS) of 5.09 µM and a TGI (SNB-75 CNS) of 20.3 µM. It also gave a GI50 (HT29 colon) of 2.87 µM, a TGI (HT29 colon) of 9.07 µM and a GI50 (CAKI-1 renal) of 1.47 µM. It also gave a TGI (CAKI-1 renal) of 3.58 µM, a GI50 (T-47D breast) of 1.93 µM and a TGI (T-47D breast) of 7.56 µM. For the same compound, the GI50 (TK-10 renal) was 2.74 µM, the TGI (TK-10 renal) was 5.51 µM and the GI50 (IGROV1 ovarian) was 2.24 µM. It also gave a TGI (IGROV1 ovarian) of 8.14 µM, a GI50 (NCI-H226 lung) of 1.55 µM and a TGI (NCI-H226 lung) of 3.81 µM. The GI50 (KM12 colon) was 2.47 µM, the TGI (KM12 colon) was 11.6 µM and the GI50 (PC-3 prostate) was 1.79 µM. It also gave a TGI (PC-3 prostate) of 6.25 µM, a GI50 (MOLT-4 leukemia) of 2.61 µM and a TGI (MOLT-4 leukemia) of 8.48 µM. The GI50 (OVCAR-4 ovarian) was 1.85 µM, the TGI (OVCAR-4 ovarian) was 3.93 µM and the GI50 (HOP-92 NSCLC) was 1.61 µM. It also gave a TGI (HOP-92 NSCLC) of 3.83 µM, a GI50 (NCI-H23 lung) of 1.66 µM and a TGI (NCI-H23 lung) of 3.46 µM. The GI50 (HS 578T breast) was 2.02 µM, the TGI (HS 578T breast) was 6.68 µM and the GI50 (K-562 leukemia) was 2.11 µM. It also gave a TGI (K-562 leukemia) of 12.7 µM, a GI50 (HL-60(TB) leukemia) of 3.51 µM and a TGI (HL-60(TB) leukemia) of 14.9 µM. The GI50 (LOX IMVI melanoma) was 1.36 µM, the TGI (LOX IMVI melanoma) was 2.64 µM and the GI50 (NCI-H522 lung) was 1.71 µM. The TGI (NCI-H522 lung) was 4.64 µM, the GI50 (SK-OV-3 ovarian) was 1.49 µM and the TGI (SK-OV-3 ovarian) was 4.12 µM. For the same compound, the GI50 (SK-MEL-2 melanoma) was 2.58 µM, the TGI (SK-MEL-2 melanoma) was 10.8 µM and the GI50 (OVCAR-3 ovarian) was 1.7 µM. The TGI (OVCAR-3 ovarian) was 3.18 µM, the GI50 (RXF 393 renal) was 1.59 µM and the TGI (RXF 393 renal) was 3.24 µM. It also gave a GI50 (NCI/ADR-RES ovarian) of 1.77 µM, a TGI (NCI/ADR-RES ovarian) of 4.04 µM and a GI50 (A498 renal) of 7.37 µM. It also gave a TGI (A498 renal) of 19.6 µM, a GI50 (BT-549 breast) of 1.43 µM and a TGI (BT-549 breast) of 4.75 µM. The GI50 (SW-620 colon) was 1.89 µM, the TGI (SW-620 colon) was 3.82 µM and the GI50 (MCF7 breast) was 2.03 µM. The TGI (MCF7 breast) was 7.86 µM, the GI50 (OVCAR-8 ovarian) was 1.87 µM and the TGI (OVCAR-8 ovarian) was 3.93 µM. For the same compound, the GI50 (SNB-19 CNS) was 2.72 µM, the TGI (SNB-19 CNS) was 8.08 µM and the GI50 (SK-MEL-28 melanoma) was 1.98 µM. It also gave a TGI (SK-MEL-28 melanoma) of 5.02 µM, a GI50 (SN12C renal) of 1.75 µM and a TGI (SN12C renal) of 4.39 µM. For the same compound, the GI50 (ACHN renal) was 1.2 µM, the TGI (ACHN renal) was 2.47 µM and the GI50 (SF-268 CNS) was 2.42 µM. The TGI (SF-268 CNS) was 10.8 µM, the GI50 (UACC-62 melanoma) was 1.35 µM and the TGI (UACC-62 melanoma) was 5.72 µM. It also gave a GI50 (SK-MEL-5 melanoma) of 2.14 µM, a TGI (SK-MEL-5 melanoma) of 5.47 µM and a GI50 (HCT-116 colon) of 1.55 µM. For the same compound, the TGI (HCT-116 colon) was 3.09 µM, the GI50 (SF-295 CNS) was 1.74 µM and the TGI (SF-295 CNS) was 3.8 µM. It also gave a GI50 (SR leukemia) of 2.93 µM, a TGI (SR leukemia) of 12.1 µM and a GI50 (U251 CNS) of 1.75 µM. It also gave a TGI (U251 CNS) of 3.29 µM, a GI50 (786-0 renal) of 1.78 µM and a TGI (786-0 renal) of 3.21 µM. For the same compound, the GI50 (HOP-62 NSCLC) was 1.62 µM, the TGI (HOP-62 NSCLC) was 3.79 µM and the GI50 (NCI-H460 lung) was 1.91 µM. It also gave a TGI (NCI-H460 lung) of 3.79 µM, a GI50 (SF-539 CNS) of 1.59 µM and a TGI (SF-539 CNS) of 3.04 µM. It also gave a GI50 (MDA-MB-231 breast) of 1.36 µM, a TGI (MDA-MB-231 breast) of 2.88 µM and a GI50 (M14 melanoma) of 1.67 µM. For the same compound, the TGI (M14 melanoma) was 5.81 µM, the GI50 (UACC-257 melanoma) was 4.3 µM and the TGI (UACC-257 melanoma) was 16.5 µM. It also gave a GI50 (DU-145 prostate) of 2.38 µM, a TGI (DU-145 prostate) of 6.52 µM and a GI50 (A549 NSCLC) of 1.52 µM. It also gave a TGI (A549 NSCLC) of 3.28 µM, a GI50 (CCRF-CEM leukemia) of 2.11 µM and a TGI (CCRF-CEM leukemia) of 5.54 µM. For the same compound, the GI50 (RPMI-8226 leukemia) was 4.04 µM, the TGI (RPMI-8226 leukemia) was 14.8 µM and the GI50 (COLO 205 colon) was 4.61 µM. For the same compound, the TGI (COLO 205 colon) was 17.1 µM.

Reference: PubChem BioAssay (NCI)
